Results published in publication PMC3391087 (The Journal of Biological Chemistry, 2012).
pIC50: −log10 of the molar value.

Target: T1, aPIIQGAP1 (C-terminal aPI binding domain of IQGAP1) (Homo sapiens, UniProt P46940)
T1 sequence (P46940 1551-1657): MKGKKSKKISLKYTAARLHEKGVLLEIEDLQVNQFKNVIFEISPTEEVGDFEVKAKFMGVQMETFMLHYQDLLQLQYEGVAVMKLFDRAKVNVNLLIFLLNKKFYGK
Assay: TR-FRET competition
Settings: displacement of biotinylated PtdInsP3 (2.5 pmol); 50 nM GST fusion

pIC50: ~6.30
Substance: PtdInsP3
